The data set in a line: activity coefficient (dimensionless); of the first substance listed, at infinite dilution; xn = mol fraction of the nth substance listed. The conditions noted are these: Liquid, Chromatography, x1 = 0.

± gives the expanded uncertainty stated by the source.

For the compound `CCCCC1CO1` (stereo unspecified) [1,2-epoxyhexane] + CCCCn1cc[n+](C)c1.F[B-](F)(F)F, the activity coefficient by setting is: (325.2 K) 5.7 ± 0.2; (334.8 K) 5.31 ± 0.19; (344.3 K) 5.3 ± 0.19; (353.9 K) 5.14 ± 0.18; (363.4 K) 5.2 ± 0.18.

With `CCCCC1CO1` (stereo unspecified) [1,2-epoxyhexane] + CCCCn1cc[n+](C)c1.F[P-](F)(F)(F)(F)F, the activity coefficient was found to be 1.94 ± 0.07 (334.8 K), 2.19 ± 0.08 (344.3 K), 2.2 ± 0.08 (353.9 K) and 2.14 ± 0.08 (363.4 K).

Take `CC1(C)CO1` [2,2-dimethyloxirane] + CCCCn1cc[n+](C)c1.F[B-](F)(F)F: the activity coefficient is, setting by setting: (325.2 K) 2.19 ± 0.08; (334.8 K) 2.13 ± 0.07; (344.3 K) 2.11 ± 0.07; (353.9 K) 2.06 ± 0.07; (363.4 K) 2.18 ± 0.08.

Take `CC1(C)CO1` [2,2-dimethyloxirane] + CCCCn1cc[n+](C)c1.F[P-](F)(F)(F)(F)F: the activity coefficient reads like this: (334.8 K) 1.09 ± 0.03; (344.3 K) 1.12 ± 0.03; (353.9 K) 1.21 ± 0.03; (363.4 K) 1.19 ± 0.04.

Regarding `CCC1CO1` (stereo unspecified) [ethyloxirane] + CCCCn1cc[n+](C)c1.F[B-](F)(F)F, the activity coefficient (325.2 K) is 2.62 ± 0.09; the activity coefficient (334.8 K) worked out at 2.14 ± 0.08; the activity coefficient (344.3 K) was 2.08 ± 0.07; the activity coefficient (353.9 K) came to 2.05 ± 0.07; the activity coefficient (363.4 K) amounted to 2.1 ± 0.07.

Regarding `CCC1CO1` (stereo unspecified) [ethyloxirane] + CCCCn1cc[n+](C)c1.F[P-](F)(F)(F)(F)F, the activity coefficient came to 1.13 ± 0.03 (334.8 K), 1.13 ± 0.03 (344.3 K), 1.19 ± 0.03 (353.9 K) and 1.16 ± 0.03 (363.4 K).

As for `CC1CO1` (stereo unspecified) [methyloxirane] + CCCCn1cc[n+](C)c1.F[B-](F)(F)F, the activity coefficient (325.2 K) was 1.35 ± 0.04; the activity coefficient (334.8 K) is 1.33 ± 0.04; the activity coefficient (344.3 K) was found to be 1.27 ± 0.03; the activity coefficient (353.9 K) was 1.32 ± 0.04; the activity coefficient (363.4 K) turned out to be 1.41 ± 0.04.

Take `CC1CO1` (stereo unspecified) [methyloxirane] + CCCCn1cc[n+](C)c1.F[P-](F)(F)(F)(F)F: the activity coefficient reads like this: (334.8 K) 0.838 ± 0.021; (344.3 K) 0.828 ± 0.021; (353.9 K) 0.893 ± 0.021; (363.4 K) 0.872 ± 0.024.

Values taken from the NIST ThermoML archive (doi:10.1016/j.fluid.2010.01.007).
